Measured values from patent US8492582B2, “N-acyl anthranilic acid derivative or salt thereof” (Toyama Chemical Co., Ltd., priority 2009, dated 2013).
Where a name gives a salt, the structure may show the parent alone. Read-outs that look alike come from different tables or passages of the source.

System: type I collagen α1 chain mRNA in WI-38 cells
Test: Type I collagen α1 chain mRNA expression inhibition test
Assay type: cell-based
Conditions: Homo sapiens, read-out: Inhibition rate (%) at 10 μmol/L
Procedure: Human embryonic lung fibroblast cell line WI-38 cells were suspended in a Dulbecco's modified Eagle's medium containing 10% fetal calf serum, and 7.5×10^4 cells were inoculated on a 12-well plate and cultured for 3 days, or 1.5×10^5 cells were inoculated and cultured for 2 days. After the growth of the cells to a subconfluent state, the culture medium was changed to a Dulbecco's modified Eagle's medium containing 0.4% fetal calf serum and 50 μg/mL ascorbic acid, and the cells were further cultured for 24 hours. Then, a test compound was added thereto, and, one hour later, TGF-β1 was added at a final concentration of 1 ng/mL. Twenty-four hours after the addition, the total RNA was extracted from the cells using an RNA extraction kit (SV Total RNA Isolation System, Promega), and cDNA was synthesized using a reverse transcriptase (ReverTra Ace, TOYOBO). The expression level of the type I collagen al chain mRNA was analyzed with a real-time PCR instrument (ABI PRISM 7700 Sequence Detection System, Applied Biosystems) by a real-time PCR method using a premix reagent of real-time PCR (SYBR Premix Ex Taq or SYBR Premix Ex Taq II (Perfect Real Time), TaKaRa). A PCR reaction was conducted with diluted cDNA as a template, using primers specific for a type I collagen α1 chain gene or a GAPDH gene as an internal standard, and the reaction product was measured. The PCR reaction was conducted by incubation at 95° C. for 10 seconds and 45 cycles of denaturation at 95° C. for 5 seconds and annealing/extension at 60° C. for 30 seconds. The expression level of the type I collagen α1 chain mRNA was corrected with GAPDH and was expressed as a relative value when the expression level obtained in the absence of the test compound was defined as 100%.

[1] = 10 μmol/L test compound, WI-38 cells, TGF-β1 1 ng/mL, 24 hours, Table 4a
[2] = 10 μmol/L test compound, WI-38 cells, TGF-β1 1 ng/mL, 24 hours, Table 4b

CN(C)CCOc1ccc(O)c(C(=O)Nc2cc(-c3ccccc3)ccc2C(=O)O)c1 [Example 109a, 2-(5-(2-(Dimethylamino)ethoxy)-2-hydroxybenzamido)-4-phenylbenzoic acid hydrochloride]
inhibition at 10 µM [1]: 91%

CN(C)c1cccc(-c2ccc(C(=O)O)c(NC(=O)c3cncc(-c4ccccc4)c3)c2)c1 [51b, 4-(3-(Dimethylamino)phenyl)-2-(5-phenylpyridine-3-carboxamido)benzoic acid]
inhibition at 10 µM [2]: 92%

O=C(Nc1cc(-c2ccccc2)ccc1C(=O)O)c1cc(N2CCSCC2)ccc1O [Example 89a, 2-(2-hydroxy-5-(thiomorpholin-4-yl)benzamido)-4-phenylbenzoic acid]
inhibition at 10 µM [1]: 98%

CN(C)CCN(C)Cc1ccc(O)c(C(=O)Nc2cc(-c3ccccc3)ccc2C(=O)O)c1 [Example 134a, 2-(5-(((2-(dimethylamino)ethyl)(methyl)amino)methyl)-2-hydroxybenzamido)-4-phenylbenzoic acid]
inhibition at 10 µM [1]: 90%

CN1CCN(CCCOc2ccc(O)c(C(=O)Nc3cc(-c4ccccc4)ccc3C(=O)O)c2)CC1 [Example 141a, 2-(2-hydroxy-5-(3-(4-methylpiperazin-1-yl)propoxy)benzamido)-4-phenylbenzoic acid dimethanesulfonate]
inhibition at 10 µM [1]: 92%

CCOc1ccccc1-c1ccc(C(=O)O)c(NC(=O)c2cncc(-c3ccccc3)c2)c1 [38b, Sodium 4-(2-ethoxyphenyl)-2-(5-phenylpyridine-3-carboxamido)benzoate]
inhibition at 10 µM [2]: 94%

CCN1CCC(c2ccc(O)c(C(=O)Nc3cc(-c4ccccc4)ccc3C(=O)O)c2)CC1 [222a, 2-(5-(1-ethylpiperidin-4-yl)-2-hydroxybenzamido)-4-phenylbenzoic acid]
inhibition at 10 µM [1]: 85%

Nc1cccc(-c2ccc(O)c(C(=O)Nc3cc(-c4ccccc4)ccc3C(=O)O)c2)n1 [Example 73a, 2-(5-(6-aminopyridin-2-yl)-2-hydroxybenzamido)-4-phenylbenzoic acid]
inhibition at 10 µM [1]: 96%

O=C(Nc1cc(-c2ccccc2OC(F)(F)F)ccc1C(=O)O)c1cncc(-c2ccccc2)c1 [40b, Sodium 2-(5-phenylpyridine-3-carboxamido)-4-(2-(trifluoromethoxy)phenyl)benzoate]
inhibition at 10 µM [2]: 96%

O=C(Nc1cc(-c2ccco2)ccc1C(=O)O)c1cc(-c2cccnc2)ccc1O [Example 44a, sodium 4-(furan-2-yl)-2-(2-hydroxy-5-(pyridin-3-yl)benzamido)benzoate]
inhibition at 10 µM (WI-38, 24 h): 89%

COc1ccc(O)c(C(=O)Nc2cc(-c3ccccc3)ccc2C(=O)O)c1 [Example 7a, 2-(2-Hydroxy-5-methoxybenzamido)-4-phenylbenzoic acid]
inhibition at 10 µM [1]: 94%

Cc1cccc(C(=O)Nc2cc(-c3ccccc3)ccc2C(=O)O)c1O [Example 41a, 2-(2-hydroxy-3-methylbenzamido)-4-phenylbenzoic acid]
inhibition at 10 µM [1]: 99%

O=C(Nc1cc(-c2ccccc2OC(F)F)ccc1C(=O)O)c1cncc(-c2ccccc2)c1 [9b]
inhibition at 10 µM (WI-38, 24 h): 84%

CCN(CC)CCN(C)c1ccc(O)c(C(=O)Nc2cc(-c3ccccc3)ccc2C(=O)O)c1 [Example 102a, 2-(5-((2-(Diethylamino)ethyl)(methyl)amino)-2-hydroxybenzamido)-4-phenylbenzoic acid]
inhibition at 10 µM [1]: 89%

O=C(Nc1cc(-c2ccccc2)ccc1C(=O)O)c1ccc(-c2cccnc2)cc1O [Example 13a, sodium 2-(2-hydroxy-4-(pyridin-3-yl)benzamido)-4-phenylbenzoate]
inhibition at 10 µM (WI-38, 24 h): 93%

O=C(Nc1cc(-c2ccccc2)ccc1C(=O)O)c1cc(-c2ccncc2)ccc1O [Example 19a, sodium 2-(2-hydroxy-5-(pyridin-4-yl)benzamido)-4-phenylbenzoate]
inhibition at 10 µM (WI-38, 24 h): 83%

CCNc1cccc(-c2ccc(C(=O)O)c(NC(=O)c3cncc(-c4ccccc4)c3)c2)c1 [11b, 4-(3-(ethylamino)phenyl)-2-(5-phenylpyridine-3-carboxamido)benzoic acid]
inhibition at 10 µM [2]: 80%

CC1CCCN(c2ccc(O)c(C(=O)Nc3cc(-c4ccccc4)ccc3C(=O)O)c2)C1 (stereo not shown) [166a, 2-(2-Hydroxy-5-(3-methylpiperidin-1-yl)benzamido)-4-phenylbenzoic acid hydrochloride]
inhibition at 10 µM [1]: 95%

CNc1ccccc1-c1ccc(C(=O)O)c(NC(=O)c2cncc(-c3ccccc3)c2)c1 [12b, 4-(2-(Methylamino)phenyl)-2-(5-phenylpyridine-3-carboxamido)benzoic acid]
inhibition at 10 µM [2]: 87%

Cc1cccc(-c2ccc(C(=O)O)c(NC(=O)c3cc(N4CCCCC4)ccc3O)c2)c1 [Example 149a, 2-(2-Hydroxy-5-(piperidin-1-yl)benzamido)-4-(3-methylphenyl)benzoic acid]
inhibition at 10 µM [1]: 97%

CN1CCC(CCOc2ccc(O)c(C(=O)Nc3cc(-c4ccccc4)ccc3C(=O)O)c2)CC1 [190a, 2-(2-Hydroxy-5-(2-(1-methylpiperidin-4-yl)ethoxy)benzamido)-4-phenylbenzoic acid hydrochloride]
inhibition at 10 µM [1]: 86%

O=C(Nc1cc(-c2ccccc2)ccc1C(=O)O)c1cc(Cl)ccc1O [Example 2a, 2-(5-Chloro-2-hydroxybenzamido)-4-phenylbenzoic acid]
inhibition at 10 µM [1]: 99%

Cc1ccccc1-c1ccc(C(=O)O)c(NC(=O)c2cc(N3CCCCC3)ccc2O)c1 [Example 148a, 2-(2-hydroxy-5-(piperidin-1-yl)benzamido)-4-(2-methylphenyl)benzoic acid]
inhibition at 10 µM [1]: 93%

O=C(Nc1cc(-c2ccccc2)ccc1C(=O)O)c1cc(N2CCC2)ccc1O [Example 86a, 2-(5-(Azetidin-1-yl)-2-hydroxybenzamido)-4-phenylbenzoic acid hydrochloride]
inhibition at 10 µM [1]: 85%

Cc1cccc(-c2ccc(C(=O)O)c(NC(=O)c3cc(N4CCOCC4)ccc3O)c2)c1 [201a, 2-(2-Hydroxy-5-(morpholin-4-yl)benzamido)-4-(3-methylphenyl)benzoic acid]
inhibition at 10 µM [1]: 94%

O=C(Nc1cc(-c2ccccc2)ccc1C(=O)O)c1ccc(N2CCCCC2)cc1O [Example 100a, 2-(2-hydroxy-4-(piperidin-1-yl)benzamido)-4-phenylbenzoic acid]
inhibition at 10 µM [1]: 99%

O=C(Nc1cc(-c2ccco2)ccc1C(=O)O)c1cc(N2CCCCC2)ccc1O [Example 65a, 4-(furan-2-yl)-2-(2-hydroxy-5-(piperidin-1-yl)benzamido)benzoic acid methanesulfonate]
inhibition at 10 µM [1]: 71%

O=C(Nc1cc(-c2ccc[nH]2)ccc1C(=O)O)c1cc(N2CCCCC2)ccc1O [157a, 2-(2-hydroxy-5-(piperidin-1-yl)benzamido)-4-(1H-pyrrol-2-yl)benzoic acid]
inhibition at 10 µM [1]: 84%

O=C(Nc1cc(-c2ccccc2)ccc1C(=O)O)c1cc(OCCN2CCN(CCCO)CC2)ccc1O [174a, 2-(2-hydroxy-5-(2-(4-(3-hydroxypropyl)piperazin-1-yl)ethoxy)benzamido)-4-phenylbenzoic acid]
inhibition at 10 µM [1]: 86%

CN1CCN(c2ccc(O)c(C(=O)Nc3cc(-c4ccccc4)ccc3C(=O)O)c2)CC1=O [193a, 2-(2-Hydroxy-5-(4-methyl-3-oxopiperazin-1-yl)benzamido)-4-phenylbenzoic acid]
inhibition at 10 µM [1]: 85%

O=C(Nc1cc(-c2ccccc2)ccc1C(=O)O)c1cccc(-c2ccccc2)n1 [5b, 4-Phenyl-2-(6-phenylpyridine-2-carboxamido)benzoic acid]
inhibition at 10 µM [2]: 72%

CN1CCN(c2ccc(O)c(C(=O)Nc3cc(-c4ccccc4)ccc3C(=O)O)c2)CC1 [Example 92a, 2-(2-hydroxy-5-(4-methylpiperazin-1-yl)benzamido)-4-phenylbenzoic acid dimethanesulfonate]
inhibition at 10 µM [1]: 84%

CCCN1CCN(CCOc2ccc(O)c(C(=O)Nc3cc(-c4ccccc4)ccc3C(=O)O)c2)CC1 [183a, 2-(2-hydroxy-5-(2-(4-propylpiperazin-1-yl)ethoxy)benzamido)-4-phenylbenzoic acid dimethanesulfonate]
inhibition at 10 µM [1]: 81%

CCN(CCO)CCOc1ccc(O)c(C(=O)Nc2cc(-c3ccccc3)ccc2C(=O)O)c1 [182a, 2-(5-(2-(Ethyl(2-hydroxyethyl)amino)ethoxy)-2-hydroxybenzamido)-4-phenylbenzoic acid hydrochloride]
inhibition at 10 µM [1]: 82%

O=C(Nc1cc(-c2ccccc2)ccc1C(=O)O)c1ccnc(-c2ccccc2)c1 [4b, 4-Phenyl-2-(2-phenylpyridine-4-carboxamido)benzoic acid]
inhibition at 10 µM [2]: 93%

O=C(Nc1cc(-c2ccsc2)ccc1C(=O)O)c1cncc(-c2ccccc2)c1 [46b, sodium 2-(5-phenylpyridine-3-carboxamido)-4-(thiophen-3-yl)benzoate]
inhibition at 10 µM (WI-38, 24 h): 69%

CN1CCC(COc2ccc(O)c(C(=O)Nc3cc(-c4ccccc4)ccc3C(=O)O)c2)CC1 [189a, 2-(2-hydroxy-5-(1-methylpiperidin-4-ylmethoxy)benzamido)-4-phenylbenzoic acid hydrochloride]
inhibition at 10 µM [1]: 95%
